According to patent publication US9546150B2, “Substituted quinazolin-4-ones for inhibiting ubiquitin specific protease 7” (HYBRIGENICS SA, priority 2011, dated 2017):

How the values were obtained:
USP7 = USP7 (Homo sapiens, UniProt Q93009); experiment: Reversibility of USP7 inhibition after G50 gel filtration; assay type: biochemical; set-up: Full-length wild-type human USP7 and its catalytic mutant; His tag (pFastBac-HT vector) (N); made in house; host or cells: Spodoptera frugiperda Sf9 (or High Five) insect cells, baculovirus; details: 100 μM, 4 h at room temperature, USP7 100 pM
USP7, sequence (Q93009 whole entry): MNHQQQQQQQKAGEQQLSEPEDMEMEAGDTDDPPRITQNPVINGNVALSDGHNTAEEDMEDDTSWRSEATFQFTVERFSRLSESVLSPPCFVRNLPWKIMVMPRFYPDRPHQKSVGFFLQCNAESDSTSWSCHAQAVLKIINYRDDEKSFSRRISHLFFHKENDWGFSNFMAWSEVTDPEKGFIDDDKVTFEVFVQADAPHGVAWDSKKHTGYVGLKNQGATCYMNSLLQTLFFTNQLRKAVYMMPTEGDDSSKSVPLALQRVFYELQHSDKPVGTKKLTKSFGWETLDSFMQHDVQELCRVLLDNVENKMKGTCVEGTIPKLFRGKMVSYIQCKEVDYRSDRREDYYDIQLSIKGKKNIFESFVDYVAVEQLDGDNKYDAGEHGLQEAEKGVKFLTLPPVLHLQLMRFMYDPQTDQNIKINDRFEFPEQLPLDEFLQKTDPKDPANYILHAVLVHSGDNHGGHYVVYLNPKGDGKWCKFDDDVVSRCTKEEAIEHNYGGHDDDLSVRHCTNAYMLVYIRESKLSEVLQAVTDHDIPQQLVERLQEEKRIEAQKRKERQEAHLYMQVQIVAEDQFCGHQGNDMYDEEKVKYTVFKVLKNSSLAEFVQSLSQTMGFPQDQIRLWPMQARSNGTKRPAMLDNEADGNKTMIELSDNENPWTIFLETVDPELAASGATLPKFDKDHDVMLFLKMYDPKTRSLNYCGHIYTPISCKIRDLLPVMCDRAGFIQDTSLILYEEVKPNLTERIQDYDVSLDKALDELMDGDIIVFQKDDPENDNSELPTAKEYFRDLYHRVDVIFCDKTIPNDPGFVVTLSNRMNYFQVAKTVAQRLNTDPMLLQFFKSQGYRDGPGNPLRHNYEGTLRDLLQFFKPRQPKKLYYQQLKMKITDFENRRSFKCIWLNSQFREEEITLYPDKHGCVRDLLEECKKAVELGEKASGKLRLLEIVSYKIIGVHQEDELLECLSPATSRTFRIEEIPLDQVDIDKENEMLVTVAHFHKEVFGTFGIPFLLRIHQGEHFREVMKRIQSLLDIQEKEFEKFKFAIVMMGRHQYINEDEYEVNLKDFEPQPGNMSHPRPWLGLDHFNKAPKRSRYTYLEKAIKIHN
Description: The reversibility of inhibition was next determined by measuring the recovery of enzymatic activity after gel filtration. […] We passed some of each sample through a G50 gel filtration system (Sephadex, G50 superfine, Sigma Aldricht). The deubiquitinating activity of the G50 eluates was assessed with the Ub-AMC substrate, as described above, and compared with that of samples not subjected to G50 filtration. The reactions were monitored using the PHERAstar (BMG Labtech).

USP8 = molecular target: T1, USP8 (Homo sapiens, UniProt P40818); experiment: HAUbVS competition assay in HEK293 cell lysates, USP8; assay type: biochemical; set-up: His tag (pFastBac-HT vector); made in house; details: 12.5-200 μM
T1 sequence (P40818 1-1118): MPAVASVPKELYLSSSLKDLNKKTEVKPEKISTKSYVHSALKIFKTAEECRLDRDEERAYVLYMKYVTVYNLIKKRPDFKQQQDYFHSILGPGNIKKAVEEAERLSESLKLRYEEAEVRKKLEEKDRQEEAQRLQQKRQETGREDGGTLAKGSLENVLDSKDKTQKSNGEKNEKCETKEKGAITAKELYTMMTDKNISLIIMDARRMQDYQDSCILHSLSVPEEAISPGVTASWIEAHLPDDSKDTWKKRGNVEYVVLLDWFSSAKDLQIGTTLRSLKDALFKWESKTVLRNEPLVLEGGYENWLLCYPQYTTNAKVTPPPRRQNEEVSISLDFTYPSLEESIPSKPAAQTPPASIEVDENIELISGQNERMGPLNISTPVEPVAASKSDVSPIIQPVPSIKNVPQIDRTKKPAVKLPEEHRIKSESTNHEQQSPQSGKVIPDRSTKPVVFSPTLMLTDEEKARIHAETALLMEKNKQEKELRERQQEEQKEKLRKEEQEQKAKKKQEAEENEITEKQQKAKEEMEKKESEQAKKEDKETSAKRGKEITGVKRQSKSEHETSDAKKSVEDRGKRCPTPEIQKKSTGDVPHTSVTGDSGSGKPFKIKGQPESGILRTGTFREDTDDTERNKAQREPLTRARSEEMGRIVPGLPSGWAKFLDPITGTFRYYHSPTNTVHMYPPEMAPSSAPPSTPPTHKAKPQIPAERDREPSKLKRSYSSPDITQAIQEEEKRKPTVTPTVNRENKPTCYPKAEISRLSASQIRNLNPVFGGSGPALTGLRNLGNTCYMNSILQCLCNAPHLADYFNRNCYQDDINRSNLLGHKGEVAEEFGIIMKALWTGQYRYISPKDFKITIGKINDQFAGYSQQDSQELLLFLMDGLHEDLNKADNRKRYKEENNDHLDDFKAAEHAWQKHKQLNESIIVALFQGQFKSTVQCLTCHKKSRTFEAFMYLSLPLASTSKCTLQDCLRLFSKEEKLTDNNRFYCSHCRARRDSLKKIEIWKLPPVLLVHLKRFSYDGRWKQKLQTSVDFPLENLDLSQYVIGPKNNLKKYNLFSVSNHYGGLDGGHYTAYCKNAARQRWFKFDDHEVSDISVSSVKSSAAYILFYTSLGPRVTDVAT
Description: The HA-Ub-VS probe (Hemagglutin tag-Ubiquitin-Vinyl Sulfone) was used in this study to directly visualize the activity of all deubiquitinating enzymes from native proteomes.
HEK293 cells were harvested and lysed on ice with a non denaturating buffer containing Tris pH7.4, 50 mM; NaCl, 150 mM; MgCl2, 5 mM; EDTA, 0.5 mM; DTT, 2 mM; ATP (adenosine triphosphate), 2 mM; NP40 (nonyl phenoxypolyethoxylethanol), 0.5% and glycerol, 10%. Samples were incubated at 4° C. for 1 hour and clarified. Proteins were then quantified by Bradford method (Bio-Rad Protein Assay). […] The ubiquitin labeling reaction was initiated by the addition of HA-Ub-VS (8 μg/ml) in labeling buffer (Tris pH7.6, 50 mM; MgCl2, 5 mM; EDTA, 0.5 mM; DTT, 2 mM; ATP, 2 mM; sucrose, 250 mM) and incubated at room temperature for 15 min. Samples were next heated at 100° C. for 10 minutes and briefly sonicated. They were resolved by SDS-polyacrylamide gel electrophoresis (SDS-PAGE), transferred to a nitrocellulose membrane and probed with antibodies against USP7, HA, UCH-L3, CYLD, USP8, USP5, USP10 and Stat3. […] Signals were detected by enhanced chemiluminescence (ECL; Amersham) according to the reagent manufacturer's instructions.

Row | SMILES | recovery of USP7 activity after G50 gel filtration (USP7) | blocking of HAUbVS labeling of USP8 (USP8)
1 | O=C(CCC1CCCC1)N1CCC(O)(Cn2cnc3ccccc3c2=O)CC1 [Example 3, 3-{[1-(3-cyclopentylpropanoyl)-4-hydroxypiperidin-4-yl]methyl}-3,4-dihydroquinazolin-4-one] | total restoration of USP7 activity | –
2 | CC(Cc1cccs1)C(=O)N1CCC(O)(Cn2cnc3ccccc3c2=O)CC1 (centres unmarked) [Example 5, 3-({4-hydroxy-1-[2-methyl-3-(thiophen-2-yl)propanoyl]piperidin-4-yl}methyl)-3,4-dihydroquinazolin-4-one] | – | without any cross-reaction
